Laboratory results as given in publication PMC7914897, “Cytotoxic Potential of a-Azepano- and 3-Amino-3,4-SeCo-Triterpenoids” (International Journal of Molecular Sciences, 2021).
Where two headings read alike, the source gives them in different places.

Legend:
UACC-62 (Melanoma) = assay: NCI-60 screen (SRB, 48 h); details: Homo sapiens
HOP-62 (NSC lung cancer) = assay: NCI-60 screen (SRB, 48 h); details: Homo sapiens, HOP-62
SN12C (Renal cancer) = assay: NCI-60 screen (SRB, 48 h); details: Homo sapiens
[1] = system: MDA-MB-31/ATCC (Breast cancer); assay: NCI-60 screen (SRB, 48 h); details: Homo sapiens
[2] = system: MDA-MB-468 (Breast cancer); assay: cells; details: Homo sapiens
[3] = system: NIH 3T3 (non-malignant mouse fibroblasts); assay: SRB cytotoxicity assay, 72 h; assay type: cell-based; details: Mus musculus, NIH3T3; NIH 3T3, 72 h, cut-off 30 µM; read-out: EC50
Procedure, shortened: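 EC50 values from SRB absorbance (570 nm) after TCA fixation, as percent surviving cells versus untreated controls. Compound exposure was 72 h at 0–30 µM, starting 24 h post-seeding, with final DMSO not above 0.5%.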

HCT-116 (Colon cancer) = assay: NCI-60 screen (SRB, 48 h); details: Homo sapiens
SNB-75 (CNS cancer) = assay: NCI-60 screen (SRB, 48 h); details: Homo sapiens
BT-549 (Breast cancer) = assay: NCI-60 screen (SRB, 48 h); assay type: cell-based; details: Homo sapiens, BT-549
PC-3 (Prostate cancer) = assay: NCI-60 screen (SRB, 48 h); details: Homo sapiens, PC-3
OVCAR-8 (Ovarian cancer) = assay: NCI-60 screen (SRB, 48 h); details: Homo sapiens, OVCAR-8
OVCAR-4 (Ovarian cancer) = assay: NCI-60 screen (SRB, 48 h); assay type: cell-based; details: Homo sapiens
[4] = system: NCI/ADR-RES (Ovarian cancer); assay: NCI-60 screen (SRB, 48 h); details: Homo sapiens
SK-OV-3 (Ovarian cancer) = assay: NCI-60 screen (SRB, 48 h); details: Homo sapiens
Renal Cancer subpanel = assay: NCI-60 screen, subpanel; details: Homo sapiens
786-0 (Renal cancer) = assay: NCI-60 screen (SRB, 48 h); details: Homo sapiens
A498 (Renal cancer) = assay: NCI-60 screen (SRB, 48 h); details: Homo sapiens
ACHN (Renal cancer) = assay: NCI-60 screen (SRB, 48 h); details: Homo sapiens
[5] = system: panel of approximately 60 cancer cell lines; assay: NCI-60 screen (SRB, 48 h), full panel
[6] = system: NCI-H322M (NSC lung cancer); assay: NCI-60 screen (SRB, 48 h); details: Homo sapiens
Colon Cancer subpanel = assay: NCI-60 screen, subpanel; details: Homo sapiens
EKVX (NSC lung cancer) = assay: NCI-60 screen (SRB, 48 h); details: Homo sapiens

C[C@H]1[C@H](C)CC[C@]2(C(=O)Nc3ccc4ncccc4c3)CC[C@]3(C)C(=CC[C@@H]4[C@@]5(C)CCCNC(C)(C)[C@@H]5CC[C@]43C)[C@H]12 [Compound 14]
GI50 (UACC-62 (Melanoma); UACC-62): 1740 nM | IC (TGI) (UACC-62 (Melanoma); UACC-62, 48 h, read-out: TGI): 3230 nM | CC50 (UACC-62 (Melanoma); UACC-62, read-out: LC50): 6000 nM | GI50 (HOP-62 (NSC lung cancer)): 1760 nM | GI50 (SN12C (Renal cancer)): 1730 nM | IC (TGI) (SN12C (Renal cancer); 48 h, read-out: TGI): 3330 nM | GI50 [1]: 1800 nM | IC (TGI) ([1]; 48 h, read-out: TGI): 3400 nM | GI50 ([2]; MDA-MB-468): 1740 nM | IC (TGI) ([2]; MDA-MB-468, 48 h, read-out: TGI): 3450 nM | CC50 ([2]; MDA-MB-468, read-out: LC50): 6870 nM | EC50 [3]: 1690 ± 100 nM | GI50 (HCT-116 (Colon cancer); HCT-116): 1600 nM | activity at 10 µM (HCT-116 (Colon cancer); HCT-116, 48 h, read-out: Growth % of the Most Sensitive Cell Lines): -100% | IC (TGI) (HCT-116 (Colon cancer); HCT-116, 48 h, read-out: TGI): 3110 nM | CC50 (HCT-116 (Colon cancer); HCT-116, read-out: LC50): 6050 nM | GI50 (SNB-75 (CNS cancer); SNB-75): 1520 nM | IC (TGI) (SNB-75 (CNS cancer); SNB-75, 48 h, read-out: TGI): 3090 nM | GI50 (BT-549 (Breast cancer)): 1840 nM | GI50 (PC-3 (Prostate cancer)): 1760 nM | GI50 (OVCAR-8 (Ovarian cancer)): 1860 nM | IC (TGI) (OVCAR-4 (Ovarian cancer); OVCAR-4, 48 h): 3250 nM | GI50 (OVCAR-4 (Ovarian cancer); OVCAR-4, read-out: GI50): 1660 nM | GI50 [4]: 1910 nM | GI50 (SK-OV-3 (Ovarian cancer); SK-OV-3): 1770 nM | IC (TGI) (SK-OV-3 (Ovarian cancer); SK-OV-3, 48 h, read-out: TGI): 3270 nM | IC (TGI) (Renal Cancer subpanel; 48 h, read-out: TGI MG_MID): 3240 nM | GI50 (Renal Cancer subpanel; read-out: GI50 MG_MID): 1660 nM | CC50 (Renal Cancer subpanel; read-out: LC50 MG_MID): 5600 nM | GI50 (786-0 (Renal cancer); 786-0): 1850 nM | IC (TGI) (786-0 (Renal cancer); 786-0, 48 h, read-out: TGI): 3480 nM | GI50 (A498 (Renal cancer); A498): 1560 nM | IC (TGI) (A498 (Renal cancer); A498, 48 h, read-out: TGI): 2960 nM | CC50 (A498 (Renal cancer); A498, read-out: LC50): 5600 nM | GI50 (ACHN (Renal cancer)): 1770 nM | IC (TGI) (ACHN (Renal cancer); 48 h, read-out: TGI): 3240 nM | Positive Cytostatic Effect (cell lines with percent growth 0 to 50 / total) ([5]; 1 dose 10 µM): 3/59 | Positive Cytotoxic Effect (cell lines with percent growth < 0 / total) ([5]; 1 dose 10 µM): 42/59 | number of cancer cell lines the compound was active against ([5]; 1 dose 10 µM): 45 cell lines | activity at 10 µM ([5]; Homo sapiens, 48 h, read-out: Mean Growth, %): -27.9% | activity at 10 µM ([5]; Homo sapiens, 48 h, read-out: Range of Growth, %): -100 to 110% | IC (TGI) ([5]; Homo sapiens, 48 h, read-out: TGI MG_MID60, average over all cell lines): 3350 nM | GI50 ([5]; Homo sapiens, read-out: GI50 MG_MID60): 1720 nM | GI50 ([5]; Homo sapiens, read-out: GI50 against all human tumor cell lines): < 3000 nM | CC50 ([5]; Homo sapiens, read-out: LC50 MG_MID60, average over all cell lines): 6520 nM | GI50 [6]: 1720 nM | IC (TGI) ([6]; 48 h, read-out: TGI): 3110 nM | IC (TGI) (Colon Cancer subpanel; 48 h, read-out: TGI MG_MID): 3370 nM | GI50 (Colon Cancer subpanel; read-out: GI50 MG_MID): 1660 nM | CC50 (Colon Cancer subpanel; read-out: LC50 MG_MID): 6180 nM | GI50 (EKVX (NSC lung cancer)): 1660 nM
